Measurements reported in US6525022B1, “Receptor specific atrial natriuretic peptides” (Genentech, Inc., priority 1993, dated 2003).
Like-named read-outs stand apart in the source and are kept apart here. Blank lines part the entries; values can stand above or below the molecule they belong to. Where a SMILES comes first, the peptide text is derived from it. Bridges are numbered along the chain shown (N, C = ends). Where no end group is shown, it is not given here. [ ]: non-standard residue; d: D form. Cha = N[C@@H](CC1CCCCC1)C(=O)O; hCys = N[C@@H](CCS)C(=O)O

Tests used:
[1] = target: human NEP (hNEP), endopeptidase 24.11 (Homo sapiens, UniProt P08473); experiment: Degradation of ANF variants by human NEP, half-life by HPLC
Sequence of human NEP (hNEP), endopeptidase 24.11 (P08473 whole entry): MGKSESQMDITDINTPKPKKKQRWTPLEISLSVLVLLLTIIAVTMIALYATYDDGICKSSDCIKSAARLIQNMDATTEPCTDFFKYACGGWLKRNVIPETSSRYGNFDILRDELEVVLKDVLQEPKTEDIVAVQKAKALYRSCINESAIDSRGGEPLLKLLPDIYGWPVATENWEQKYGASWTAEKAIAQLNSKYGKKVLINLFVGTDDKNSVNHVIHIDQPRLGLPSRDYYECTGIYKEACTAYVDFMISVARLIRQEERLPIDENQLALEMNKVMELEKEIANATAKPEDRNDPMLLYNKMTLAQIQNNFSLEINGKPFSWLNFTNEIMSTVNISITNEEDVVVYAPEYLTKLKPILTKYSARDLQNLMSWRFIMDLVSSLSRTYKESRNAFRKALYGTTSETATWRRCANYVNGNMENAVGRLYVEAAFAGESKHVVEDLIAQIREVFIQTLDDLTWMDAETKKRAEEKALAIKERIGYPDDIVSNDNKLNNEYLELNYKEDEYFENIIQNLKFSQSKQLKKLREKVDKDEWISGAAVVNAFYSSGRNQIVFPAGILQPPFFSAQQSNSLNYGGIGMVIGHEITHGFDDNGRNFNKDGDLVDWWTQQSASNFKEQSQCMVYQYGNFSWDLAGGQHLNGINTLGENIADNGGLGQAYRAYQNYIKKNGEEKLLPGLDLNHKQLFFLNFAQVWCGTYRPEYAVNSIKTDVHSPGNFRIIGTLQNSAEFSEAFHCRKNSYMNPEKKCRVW

[2] = target: T1, human natriuretic peptide receptor-A (human, UniProt P16066 33-1061); experiment: competition binding, Table I; tracer and receptor format not given
T1 construct: whole, on cells; also called hNPR-A; human NPR-A
T1 sequence (looked up): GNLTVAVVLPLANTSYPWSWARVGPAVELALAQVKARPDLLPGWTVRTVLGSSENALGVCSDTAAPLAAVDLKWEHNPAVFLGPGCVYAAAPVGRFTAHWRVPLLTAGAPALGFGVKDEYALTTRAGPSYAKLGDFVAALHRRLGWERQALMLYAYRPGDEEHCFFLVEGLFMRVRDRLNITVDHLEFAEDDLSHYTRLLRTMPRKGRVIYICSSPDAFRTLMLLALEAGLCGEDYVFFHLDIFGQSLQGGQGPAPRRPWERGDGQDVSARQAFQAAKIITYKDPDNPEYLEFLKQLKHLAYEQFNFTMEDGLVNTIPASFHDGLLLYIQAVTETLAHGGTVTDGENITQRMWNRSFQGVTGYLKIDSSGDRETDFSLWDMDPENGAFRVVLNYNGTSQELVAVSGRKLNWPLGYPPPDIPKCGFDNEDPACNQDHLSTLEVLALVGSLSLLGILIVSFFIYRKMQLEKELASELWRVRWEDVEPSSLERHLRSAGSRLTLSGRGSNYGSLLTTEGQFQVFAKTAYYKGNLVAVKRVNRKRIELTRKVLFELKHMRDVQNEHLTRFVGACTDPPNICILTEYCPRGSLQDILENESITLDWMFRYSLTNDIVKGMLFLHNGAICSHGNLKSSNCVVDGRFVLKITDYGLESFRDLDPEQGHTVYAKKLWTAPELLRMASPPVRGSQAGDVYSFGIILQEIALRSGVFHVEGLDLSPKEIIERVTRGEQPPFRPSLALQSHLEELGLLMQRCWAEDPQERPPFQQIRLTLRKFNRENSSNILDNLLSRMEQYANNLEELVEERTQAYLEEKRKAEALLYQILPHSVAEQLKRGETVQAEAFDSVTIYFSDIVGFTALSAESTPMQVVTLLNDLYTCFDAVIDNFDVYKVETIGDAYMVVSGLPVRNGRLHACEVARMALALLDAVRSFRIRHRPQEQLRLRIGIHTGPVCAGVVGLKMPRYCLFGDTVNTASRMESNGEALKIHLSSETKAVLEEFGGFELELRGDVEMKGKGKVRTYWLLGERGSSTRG

[3] = target: T2, human natriuretic peptide clearance receptor-C (human, UniProt P17342 27-541); experiment: as above
T2 construct: whole, on cells; also called hNPR-C; human NPR-C
T2 sequence (looked up): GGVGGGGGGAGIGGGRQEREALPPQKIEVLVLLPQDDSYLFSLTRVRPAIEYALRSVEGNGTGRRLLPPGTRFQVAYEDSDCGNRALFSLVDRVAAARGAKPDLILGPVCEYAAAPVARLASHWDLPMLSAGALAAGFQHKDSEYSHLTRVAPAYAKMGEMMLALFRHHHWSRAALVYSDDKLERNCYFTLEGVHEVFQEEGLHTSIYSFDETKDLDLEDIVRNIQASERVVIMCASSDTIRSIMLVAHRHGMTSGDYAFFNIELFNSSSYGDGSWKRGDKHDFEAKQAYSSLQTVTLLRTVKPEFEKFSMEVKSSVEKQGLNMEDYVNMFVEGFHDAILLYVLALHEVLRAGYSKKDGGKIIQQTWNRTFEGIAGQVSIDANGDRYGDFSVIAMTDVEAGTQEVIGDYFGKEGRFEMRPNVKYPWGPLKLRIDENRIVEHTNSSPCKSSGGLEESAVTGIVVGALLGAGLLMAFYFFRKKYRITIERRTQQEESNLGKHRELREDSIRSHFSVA

[4] = isolated human NEP (endopeptidase 24.11) in HEPES buffer, Half-Life (min.), FIG. 7: ANF variants 32 nM/ml, NEP 0.45 μg/ml
[5] = isolated human NEP (endopeptidase 24.11) in HEPES buffer, Half-Life (min.), FIG. 6: ANF variants 0.5 mg/ml, NEP 0.225 mg/ml

half-life at 32 nM/ml [1, 4]: 3.32 h
Molecule: CC[C@H](C)[C@@H]1NC(=O)[C@H](CO)NC(=O)[C@H](CC(=O)O)NC(=O)[C@H]([C@@H](C)CC)NC(=O)[C@H](CCCNC(=N)N)NC(=O)CNC(=O)CNC(=O)[C@H](Cc2ccccc2)NC(=O)[C@@H](NC(=O)[C@H](CO)NC(=O)[C@H](CO)NC(=O)[C@H](CCCNC(=N)N)NC(=O)[C@H](CCCNC(=N)N)NC(=O)[C@H](CC(C)C)NC(=O)[C@@H](N)CO)CSSC[C@@H](C(=O)N[C@@H](CC(N)=O)C(=O)N[C@@H](CO)C(=O)N[C@@H](Cc2ccccc2)C(=O)N[C@@H](CCCNC(=N)N)C(=O)N[C@@H](Cc2ccc(O)cc2)C(=O)O)NC(=O)CNC(=O)[C@H](CC(C)C)NC(=O)CNC(=O)[C@H](CO)NC(=O)[C@H](CCC(N)=O)NC(=O)[C@H](C)NC(=O)[C@H](CCCNC(=N)N)NC1=O [ANF 25] (H-SLRRSSCFGGRIDSIRAQSGLGCNSFRY-OH; disulfide 7-23 (inferred); N-terminus and C-terminus assumed)

half-life at 32 nM/ml ([1]; isolated human NEP (endopeptidase 24.11) in HEPES buffer, Half-life, FIG. 8: 32 nM/ml peptide, 0.075 μg/ml NEP): 32.1 h | half-life at 32 nM/ml ([1]; isolated human NEP (endopeptidase 24.11) in HEPES buffer, Half-life, FIG. 8: 32 nM/ml peptide, 0.15 μg/ml NEP): 4.48 h
Molecule: CC[C@H](C)[C@@H]1NC(=O)[C@H](CCCNC(=N)N)NC(=O)[C@H](CC(=O)O)NC(=O)[C@H](CCSC)NC(=O)[C@@H]2CCCN2C(=O)[C@H](CCCNC(=N)N)NC(=O)[C@H](CCC(=O)O)NC(=O)[C@H](Cc2ccccc2)NC(=O)[C@@H](NC(=O)[C@H](CO)NC(=O)[C@H](CO)NC(=O)[C@H](CCCNC(=N)N)NC(=O)[C@H](CCCNC(=N)N)NC(=O)[C@H](CC(C)C)NC(=O)[C@@H](N)CO)CSSC[C@@H](C(=O)N[C@@H](CC(N)=O)C(=O)N[C@@H](CO)C(=O)N[C@@H](Cc2ccccc2)C(=O)N[C@@H](CCCNC(=N)N)C(=O)N[C@@H](Cc2ccc(O)cc2)C(=O)O)NC(=O)CNC(=O)[C@H](CC(C)C)NC(=O)CNC(=O)[C@H](CO)NC(=O)[C@H](CCC(N)=O)NC(=O)[C@H](C)NC(=O)CNC1=O [ANF 51] (H-SLRRSSCFERPMDRIGAQSGLGCNSFRY-OH; disulfide 7-23; C-terminus assumed)

half-life at 32 nM/ml [1, 4]: 7.95 h
Molecule: CC[C@H](C)[C@@H]1NC(=O)[C@H](CCCNC(=N)N)NC(=O)[C@H](CC(=O)O)NC(=O)[C@H]([C@@H](C)CC)NC(=O)[C@H](CO)NC(=O)CNC(=O)[C@H]([C@@H](C)O)NC(=O)[C@H](CC2CCCCC2)NC(=O)[C@@H](NC(=O)[C@H](CO)NC(=O)[C@H](CO)NC(=O)[C@H](CCCNC(=N)N)NC(=O)[C@H](CCCNC(=N)N)NC(=O)[C@H](CC(C)C)NC(=O)[C@@H](N)CO)CSSC[C@@H](C(=O)N[C@@H](CC(N)=O)C(=O)N[C@@H](CO)C(=O)N[C@@H](Cc2ccccc2)C(=O)N[C@@H](CCCNC(=N)N)C(=O)N[C@@H](Cc2ccc(O)cc2)C(=O)O)NC(=O)CNC(=O)[C@H](CC(C)C)NC(=O)CNC(=O)[C@H](CO)NC(=O)[C@H](CCC(N)=O)NC(=O)[C@H](C)NC(=O)[C@H](CCCNC(=N)N)NC1=O [ANF 79] (H-SLRRSSC[Cha]TGSIDRIRAQSGLGCNSFRY-OH; disulfide 7-23; C-terminus assumed)

half-life at 0.5 mg/ml [1, 5]: 1.55 h
Molecule: CC[C@H](C)[C@@H]1NC(=O)[C@H](CCCNC(=N)N)NC(=O)[C@H](CC(=O)O)NC(=O)[C@H](CCSC)NC(=O)[C@H](CO)NC(=O)CNC(=O)[C@H]([C@@H](C)O)NC(=O)[C@H](Cc2ccccc2)NC(=O)[C@@H](NC(=O)[C@H](CO)NC(=O)[C@H](CO)NC(=O)[C@H](CCCNC(=N)N)NC(=O)[C@H](CCCNC(=N)N)NC(=O)[C@H](CC(C)C)NC(=O)[C@@H](N)CO)CSSC[C@@H](C(=O)N[C@@H](CC(N)=O)C(=O)N[C@@H](CO)C(=O)N[C@@H](Cc2ccccc2)C(=O)N[C@@H](CCCNC(=N)N)C(=O)N[C@@H](Cc2ccc(O)cc2)C(=O)O)NC(=O)CNC(=O)[C@H](CC(C)C)NC(=O)CNC(=O)[C@H](CO)NC(=O)[C@H](CCC(N)=O)NC(=O)[C@H](C)NC(=O)CNC1=O [ANF 50] (H-SLRRSSCFTGSMDRIGAQSGLGCNSFRY-OH; disulfide 7-23; C-terminus assumed)

Molecule: CC[C@H](C)[C@@H]1NC(=O)[C@H](CCCNC(=N)N)NC(=O)[C@H](CC(=O)O)NC(=O)[C@H]([C@@H](C)CC)NC(=O)[C@H](CCCNC(=N)N)NC(=O)CNC(=O)CNC(=O)[C@H](Cc2ccccc2)NC(=O)[C@@H](NC(=O)[C@H](CO)NC(=O)[C@H](CO)NC(=O)[C@H](CCCNC(=N)N)NC(=O)[C@H](CCCNC(=N)N)NC(=O)[C@H](CC(C)C)NC(=O)[C@@H](N)CO)CSSC[C@@H](C(=O)N[C@@H](CC(N)=O)C(=O)N[C@@H](CO)C(=O)N[C@@H](Cc2ccccc2)C(=O)N[C@@H](CCCNC(=N)N)C(=O)N[C@@H](Cc2ccc(O)cc2)C(=O)O)NC(=O)CNC(=O)[C@H](CC(C)C)NC(=O)CNC(=O)[C@H](CO)NC(=O)[C@H](CCC(N)=O)NC(=O)[C@H](C)NC(=O)[C@H](CCCNC(=N)N)NC1=O [ANF 24]
half-life at 0.5 mg/ml [1, 5]: 10 h

Molecule: CC[C@H](C)[C@@H]1NC(=O)[C@H](CCCNC(=N)N)NC(=O)[C@H](CC(=O)O)NC(=O)[C@H]([C@@H](C)CC)NC(=O)[C@H](CCCNC(=N)N)NC(=O)CNC(=O)CNC(=O)[C@H](Cc2ccccc2)NC(=O)[C@@H](NC(=O)[C@H](CO)NC(=O)[C@H](CO)NC(=O)[C@H](CCCNC(=N)N)NC(=O)[C@H](CCCNC(=N)N)NC(=O)[C@H](CC(C)C)NC(=O)[C@H](CO)NC(=O)[C@H](CCCNC(=N)N)NC(=O)[C@@H]2CCCN2C(=O)[C@H](C)NC(=O)[C@@H](N)[C@@H](C)O)CSSC[C@@H](C(=O)N[C@@H](CC(N)=O)C(=O)N[C@@H](CO)C(=O)N[C@@H](Cc2ccccc2)C(=O)N[C@@H](CCCNC(=N)N)C(=O)N[C@@H](Cc2ccc(O)cc2)C(=O)O)NC(=O)CNC(=O)[C@H](CC(C)C)NC(=O)CNC(=O)[C@H](CO)NC(=O)[C@H](CCC(N)=O)NC(=O)[C@H](C)NC(=O)[C@H](CCCNC(=N)N)NC1=O [ANF 23] (H-TAPRSLRRSSCFGGRIDRIRAQSGLGCNSFRY-OH; disulfide 11-27)
half-life at 0.5 mg/ml [1]: 12.3 h

half-life at 32 nM/ml [1, 4]: 2.97 h
Molecule: CC[C@H](C)[C@@H]1NC(=O)[C@H](CCCNC(=N)N)NC(=O)[C@H](CC(=O)O)NC(=O)[C@H]([C@@H](C)CC)NC(=O)[C@H](CO)NC(=O)CNC(=O)[C@H]([C@@H](C)O)NC(=O)[C@H](Cc2ccccc2)NC(=O)[C@@H](NC(=O)[C@H](CO)NC(=O)[C@H](CO)NC(=O)[C@H](CCCNC(=N)N)NC(=O)[C@H](CCCNC(=N)N)NC(=O)[C@H](CC(C)C)NC(=O)[C@@H](N)CO)CSSC[C@@H](C(=O)N[C@@H](CC(N)=O)C(=O)N[C@@H](CO)C(=O)N[C@@H](Cc2ccccc2)C(=O)N[C@@H](CCCNC(=N)N)C(=O)N[C@@H](Cc2ccc(O)cc2)C(=O)O)NC(=O)CNC(=O)[C@H](CC(C)C)NC(=O)CNC(=O)[C@H](CO)NC(=O)[C@@H]2CCCN2C(=O)[C@H](C)NC(=O)[C@H](CCCNC(=N)N)NC1=O [ANF 31] (H-SLRRSSCFTGSIDRIRAPSGLGCNSFRY-OH; disulfide 7-23; C-terminus assumed)

IC50 [2]: 3.3 nM
Molecule: SLDRSSCFTGSLDSIRA[hCys]SGLGCNSFR[hCys] (disulfide 18-28, 7-23) [ANF 70]

IC50 [2]: 2.08 nM | IC50 [3]: 2000 nM
Molecule: SLRRSSC[dA]FTGSIDRIRAQSGLGCNSFRY (disulfide 7-24) [ANF 75]

IC50 [2]: 29.4 nM | IC50 [3]: 10000 nM
Molecule: SLRRSSC[dS]FTGSIDRIRAQSGLGCNSFRY (disulfide 7-24) [ANF 74]
